Experimental data as given in ChEMBL document CHEMBL4715829, “Heterodimeric Rifampicin-Tobramycin conjugates break intrinsic resistance of Pseudomonas aeruginosa to doxycycline and chloramphenicol in vitro and in a Galleria mellonella in vivo model” (Eur J Med Chem, 2019).

How the values were obtained:
[1] = tested on: Pseudomonas aeruginosa; assay: Antibacterial activity against Pseudomonas aeruginosa PAO1 assessed as reduction in bacterial growth by measuring minocycline MIC at <=10 uM in presence of minocycline incubated for 18 hrs by broth microdilution assay based checkerboard assay (reference value: 8 microg/ml); format: functional; details: dose microM <=10
[2] = tested on: Pseudomonas aeruginosa; assay: Antibacterial activity against Pseudomonas aeruginosa PAO1 assessed as fractional inhibitory concentration index in presence of Tobramycin incubated for 18 hrs by broth microdilution assay based checkerboard assay; format: functional
[3] = tested on: Pseudomonas aeruginosa; assay: Antibacterial activity against Pseudomonas aeruginosa PAO1 assessed as fractional inhibitory concentration index in presence of Chloramphenicol incubated for 18 hrs by broth microdilution assay based checkerboard assay; format: functional
[4] = tested on: Pseudomonas aeruginosa; assay: Antibacterial activity against Pseudomonas aeruginosa PAO1 assessed as fractional inhibitory concentration index in presence of Tigecycline incubated for 18 hrs by broth microdilution assay based checkerboard assay; format: functional
[5] = tested on: Pseudomonas aeruginosa; assay: Antibacterial activity against Pseudomonas aeruginosa 260-97103 assessed as reduction in bacterial growth incubated for 18 hrs by broth microdilution assay; format: functional
[6] = Hemolytic activity in porcine erythrocyte at 1024 ug/ml incubated for 1 hr; format: ADME, cell-based, Sus scrofa; details: pig, porcine erythrocytes, at 1024 µg/mL, read-out: Activity
[7] = tested on: Pseudomonas aeruginosa; assay: Antibacterial activity against Pseudomonas aeruginosa PAO1 assessed as fractional inhibitory concentration index in presence of Colistin incubated for 18 hrs by broth microdilution assay based checkerboard assay; format: functional
[8] = tested on: Pseudomonas aeruginosa; assay: Antibacterial activity against Pseudomonas aeruginosa PAO1 assessed as fractional inhibitory concentration index in presence of Moxifloxacin incubated for 18 hrs by broth microdilution assay based checkerboard assay; format: functional
[9] = tested on: Escherichia coli; assay: Antibacterial activity against gentamicin-resistant Escherichia coli CAN-ICU 61714 assessed as reduction in bacterial growth incubated for 18 hrs by broth microdilution assay; format: functional
[10] = tested on: Stenotrophomonas maltophilia; assay: Antibacterial activity against Stenotrophomonas maltophilia CAN-ICU 62584 assessed as reduction in bacterial growth incubated for 18 hrs by broth microdilution assay; format: functional
[11] = tested on: Pseudomonas aeruginosa; assay: Antibacterial activity against Pseudomonas aeruginosa PAO1 assessed as reduction in bacterial growth by measuring novobiocin MIC at <=10 uM in presence of novobiocin incubated for 18 hrs by broth microdilution assay based checkerboard assay (reference value: 512 microg/ml); format: functional; details: dose microM <=10
[12] = tested on: Pseudomonas aeruginosa; assay: Antibacterial activity against Pseudomonas aeruginosa PAO1 assessed as fractional inhibitory concentration index in presence of Erythromycin incubated for 18 hrs by broth microdilution assay based checkerboard assay; format: functional
[13] = tested on: Pseudomonas aeruginosa; assay: Antibacterial activity against Pseudomonas aeruginosa PAO1 assessed as reduction in bacterial growth by measuring aztreonam MIC at <=10 uM in presence of aztreonam incubated for 18 hrs by broth microdilution assay based checkerboard assay (reference value: 4 microg/ml); format: functional; details: dose microM <=10
[14] = tested on: Pseudomonas aeruginosa; assay: Antibacterial activity against Pseudomonas aeruginosa PAO1 assessed as reduction in bacterial growth by measuring pleuromutilin MIC at <=10 uM in presence of pleuromutilin incubated for 18 hrs by broth microdilution assay based checkerboard assay (reference value: 512 microg/ml); format: functional; details: dose microM <=10
[15] = tested on: Pseudomonas aeruginosa; assay: Antibacterial activity against Pseudomonas aeruginosa 114228 assessed as reduction in bacterial growth incubated for 18 hrs by broth microdilution assay; format: functional
[16] = tested on: Pseudomonas aeruginosa; assay: Antibacterial activity against Pseudomonas aeruginosa 259-96918 assessed as fractional inhibitory concentration index in presence of doxycycline incubated for 18 hrs by broth microdilution assay; format: functional
[17] = tested on: Pseudomonas aeruginosa; assay: Antibacterial activity against Pseudomonas aeruginosa PAO1 assessed as fractional inhibitory concentration index in presence of Vancomycin incubated for 18 hrs by broth microdilution assay based checkerboard assay; format: functional
[18] = tested on: Escherichia coli; assay: Antibacterial activity against gentamicin, tobramycin, ciprofloxacin-resistant Escherichia coli ATCC 97615 harboring aac(3')IIa gene assessed as reduction in bacterial growth incubated for 18 hrs by broth microdilution assay; format: functional
[19] = tested on: Pseudomonas aeruginosa; assay: Antibacterial activity against Pseudomonas aeruginosa ATCC 27853 assessed as reduction in bacterial growth incubated for 18 hrs by broth microdilution assay; format: functional
[20] = tested on: Escherichia coli; assay: Antibacterial activity against Escherichia coli CAN-ICU 63074 (AMK 32) assessed as reduction in bacterial growth incubated for 18 hrs by broth microdilution assay; format: functional
[21] = tested on: Pseudomonas aeruginosa; assay: Antibacterial activity against Pseudomonas aeruginosa 91433 assessed as fractional inhibitory concentration index in presence of chloramphenicol incubated for 18 hrs by broth microdilution assay; format: functional
[22] = tested on: Staphylococcus aureus; assay: Antibacterial activity against methicillin-resistance Staphylococcus aureus ATCC 33592 assessed as reduction in bacterial growth incubated for 18 hrs by broth microdilution assay; format: functional
[23] = tested on: Pseudomonas aeruginosa; assay: Antibacterial activity against Pseudomonas aeruginosa PAO1 assessed as fractional inhibitory concentration index in presence of Ceftazidime incubated for 18 hrs by broth microdilution assay based checkerboard assay; format: functional
[24] = tested on: Pseudomonas aeruginosa; assay: Antibacterial activity against Pseudomonas aeruginosa 262-101856 assessed as reduction in bacterial growth incubated for 18 hrs by broth microdilution assay; format: functional
[25] = tested on: Pseudomonas aeruginosa; assay: Antibacterial activity against Pseudomonas aeruginosa PAO1 assessed as fractional inhibitory concentration index in presence of Doxycycline incubated for 18 hrs by broth microdilution assay based checkerboard assay; format: functional
[26] = tested on: Pseudomonas aeruginosa; assay: Antibacterial activity against Pseudomonas aeruginosa 100036 assessed as reduction in bacterial growth incubated for 18 hrs by broth microdilution assay; format: functional
[27] = tested on: Pseudomonas aeruginosa; assay: Antibacterial activity against Pseudomonas aeruginosa 101243 assessed as fractional inhibitory concentration index in presence of chloramphenicol incubated for 18 hrs by broth microdilution assay; format: functional
[28] = tested on: Pseudomonas aeruginosa; assay: Antibacterial activity against Pseudomonas aeruginosa PAO1 assessed as fractional inhibitory concentration index in presence of Clindamycin incubated for 18 hrs by broth microdilution assay based checkerboard assay; format: functional
[29] = tested on: Pseudomonas aeruginosa; assay: Antibacterial activity against Pseudomonas aeruginosa PAO1 assessed as reduction in bacterial growth by measuring colistin MIC at <=10 uM in presence of colistin incubated for 18 hrs by broth microdilution assay based checkerboard assay (reference value: 1 microg/ml); format: functional; details: dose microM <=10
[30] = tested on: Pseudomonas aeruginosa; assay: Antibacterial activity against Pseudomonas aeruginosa 750 harboring efflux mutant assessed as reduction in bacterial growth incubated for 18 hrs by broth microdilution assay; format: functional
[31] = tested on: Klebsiella pneumoniae; assay: Antibacterial activity against Klebsiella pneumoniae ATCC 13883 assessed as reduction in bacterial growth incubated for 18 hrs by broth microdilution assay; format: functional
[32] = tested on: Pseudomonas aeruginosa; assay: Antibacterial activity against Pseudomonas aeruginosa PAO1 assessed as reduction in bacterial growth by measuring ceftazidime MIC at <=10 uM in presence of ceftazidime incubated for 18 hrs by broth microdilution assay based checkerboard assay (reference value: 2 microg/ml); format: functional; details: dose microM <=10
[33] = tested on: Pseudomonas aeruginosa; assay: Antibacterial activity against Pseudomonas aeruginosa 260-97103 assessed as fractional inhibitory concentration index in presence of chloramphenicol incubated for 18 hrs by broth microdilution assay; format: functional
[34] = tested on: Pseudomonas aeruginosa; assay: Antibacterial activity against Pseudomonas aeruginosa PAO1 assessed as fractional inhibitory concentration index in presence of Linezolid incubated for 18 hrs by broth microdilution assay based checkerboard assay; format: functional
[35] = tested on: Pseudomonas aeruginosa; assay: Antibacterial activity against Pseudomonas aeruginosa PAO1 assessed as reduction in bacterial growth by measuring rifampicin MIC at <=[…] uM in presence of rifampicin incubated for 18 hrs by broth microdilution assay based checkerboard assay (reference value: […] microg/ml); format: functional; details: dose microM <=10
[36] = tested on: Acinetobacter baumannii; assay: Antibacterial activity against Acinetobacter baumannii CAN-ICU 63169 assessed as reduction in bacterial growth incubated for 18 hrs by broth microdilution assay; format: functional
[37] = Cytotoxicity against human HEK293 cells assessed as cell viability at 50 uM incubated for 48 hrs by prestoblue assay; format: cell-based; details: read-out: Activity

## CO[C@H]1/C=C/O[C@@]2(C)Oc3c(C)c(O)c4c(O)c(c(/C=N/N5CCN(Cc6cn(CCCCCCCCCCCCO[C@@H]7[C@@H](O[C@H]8O[C@H](CO)[C@@H](O)[C@H](N)[C@H]8O)[C@H](N)C[C@H](N)[C@H]7O[C@H]7O[C@H](CN)[C@@H](O)C[C@H]7N)nn6)CC5)c(O)c4c3C2=O)NC(=O)/C(C)=C\C=C\[C@H](C)[C@H](O)[C@@H](C)[C@@H](O)[C@@H](C)[C@H](OC(C)=O)[C@@H]1C.O=C(O)C(F)(F)F.O=C(O)C(F)(F)F.O=C(O)C(F)(F)F.O=C(O)C(F)(F)F.O=C(O)C(F)(F)F
[1]
  MIC: 2 µg/mL
[2]
  fractional inhibitory concentration index (FICI): 1.03
[3]
  fractional inhibitory concentration index (FICI): 0.09
[4]
  fractional inhibitory concentration index (FICI): 0.51
[5]
  MIC: > 128 µg/mL
[6]
  hemolysis at 1 h, 1024 ug/ml: < 2%
[7]
  fractional inhibitory concentration index (FICI): 0.26
[8]
  fractional inhibitory concentration index (FICI): 1.03
[9]
  MIC: > 32 µg/mL
[10]
  MIC: > 32 µg/mL
[11]
  MIC: 128 µg/mL
[12]
  fractional inhibitory concentration index (FICI): 0.06
[13]
  MIC: 4 µg/mL
[14]
  MIC: 256 µg/mL
[15]
  MIC: > 128 µg/mL
[16]
  fractional inhibitory concentration index (FICI): <0.133
[17]
  fractional inhibitory concentration index (FICI): 0.53
[18]
  MIC: 32 µg/mL
[19]
  MIC: > 32 µg/mL
[20]
  MIC: 32 µg/mL
[21]
  fractional inhibitory concentration index (FICI): 0.25
[22]
  MIC: > 32 µg/mL
[23]
  fractional inhibitory concentration index (FICI): 1.03
[24]
  MIC: > 256 µg/mL
[25]
  fractional inhibitory concentration index (FICI): 0.09
[26]
  MIC: 256 µg/mL
[27]
  fractional inhibitory concentration index (FICI): 0.125
[28]
  fractional inhibitory concentration index (FICI): 0.26
[29]
  MIC: 0.25 µg/mL
[30]
  MIC: 128 µg/mL
[31]
  MIC: > 32 µg/mL
[32]
  MIC: 2 µg/mL
[33]
  fractional inhibitory concentration index (FICI): <0.129
[34]
  fractional inhibitory concentration index (FICI): 0.28
[35]
  MIC: 2 µg/mL
[36]
  MIC: > 32 µg/mL
[37]
  viability at 48 h, 50 µM: > 70%
